Measured values published in patent US6355799B1, “Substituted benzene compounds, process for their preparation, and herbicidal and defoliant compositions containing them” (ISK Americas Incorporated, priority 1997, dated 2002).

Tests used:
Format in all cases: in vivo
[1] = tested on: redroot pigweed (Amaranthus retroflexus, AMARE); assay: Pre-emerge test, greenhouse herbicide activity screening; details: pre-emerge, 14 days after application, scale 0-100
Outline: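 Compounds in acetone were track-sprayed at 15-1000 g ai/ha (187 l/ha) on sandy loam pots: pre-emerge one day after seeding, post-emerge at 2-3 leaf stage with 0.25% v/v non-ionic surfactant. Phytotoxicity was rated 14 days later on a 0 (no damage) to 100 (complete death) scale.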

[2] = tested on: green foxtail (Setaria viridis, SETVI); assay: as above; details: pre-emerge, 14 days after application, scale 0-100
Description: (§1) A standard greenhouse herbicide activity screening system was used to evaluate the herbicidal efficacy and crop safety of these test compounds. Seven broadleaf weed species including redroot pigweed (Amaranthus retroflexus, AMARE, velvetleaf (Abutilon theophrasti, ABUTH), sicklepod (Cassia obtusifolia, CASOB), ivyleaf morningglory (Ipomoea hederacea, IPOHE), lambsquarters (Chenopodium album, CHEAL), common ragweed (Ambrosia artemisizfolia L., AMBEL), and cocklebur (Xanthium strumarium, XANST) were used as test species. Four grass weed species including green foxtail (Setaria viridis, SETVI), barnyardgrass (Echinochloa crus-galli, ECHCG), johnsongrass (Sorghum halepense, SORHA), and large crabgrass (Digitaria sanguinalis, DIGSA) were also used. In addition, three crop species, field corn (Zea mays L., var. Dekalb 535, CORN), soybean (Glycine max L., var. Pella 86, SOY), and is upland rice (Oryza sp., var. Tebonnet, RICE) were included.
(§2) All plants were grown in 10 cm square plastic pots which were filled with a sandy loam soil mix. For pre-emerge tests, seeds were planted one day prior to application of the test compounds. For post-emerge tests, seeds were planted 8-21 days prior to the test to allow emergence and good foliage development prior to application of the test substances. At the time of the post-emerge application, plants of all species were usually at the 2-3 leaf stage of development.
(§3) All test compounds Were dissolved in acetone and applied to the test units in a volume of 187 l /ha. Test materials were applied at rates ranging from 15 g ai/ha to 1000 g ai/ha using a track sprayer equipped with a TJ8001E even flow flat fan spray nozzle. Plants were arranged on a shelf so that the top of the canopy (post-emerge) or top of the soil surface (pre-emerge) was 40-45 cm below the nozzle. Pressurized air was used to force the test solution through the nozzle as it was mechanically advanced (via electrically driven chain drive) over the top of all test plants/pots. This application simulates a typical commercial field herbicide application.
(§4) In the post-emerge test, a commercial non-ionic surfactant was also included (0.25% v/v) to enhance wetting of the leaf surfaces of target plants. Immediately after application, test units of the pre-emerge applications were watered at the soil surface to incorporate the test materials. Subsequently, these test units were bottom-watered. Post-emerge test units were always bottom-watered.
(§5) At 14 days after application of the test materials, phytotoxicity ratings were recorded. A rating scale of 0-100 was used as previously described in Research Methods in Weed Science, 2nd edition, B. Truelove, Ed., Southern Weed Science Society, Auburn University, Auburn, Ala. 1977. Briefly, “0” corresponds to no damage and “100” corresponds to complete death of all plants in the test unit. This scale was used both to determine efficacy against weed species and damage to crop species. Herbicide activity data for various compounds of this invention, which are shown by compound No. in Tables 1-8, are shown in Tables 11 and 12.

[3] = tested on: ivyleaf morningglory (Ipomoea hederacea, IPOHE); assay: as above; details: pre-emerge, 14 days after application, scale 0-100
Description: as §1, §2, §3, §4, §5

[4] = tested on: velvetleaf (Abutilon theophrasti, ABUTH); assay: as above; details: pre-emerge, 14 days after application, scale 0-100
Description: as §1, §2, §3, §4, §5

[5] = tested on: lambsquarters (Chenopodium album, CHEAL); assay: as above; details: pre-emerge, 14 days after application, scale 0-100
Description: as §1, §2, §3, §4, §5

[6] = tested on: barnyardgrass (Echinochloa crus-galli, ECHCG); assay: as above; details: pre-emerge, 14 days after application, scale 0-100
Description: as §1, §2, §3, §4, §5

[7] = tested on: sicklepod (Cassia obtusifolia, CASOB); assay: as above; details: pre-emerge, 14 days after application, scale 0-100
Description: as §1, §2, §3, §4, §5

[8] = tested on: large crabgrass (Digitaria sanguinalis, DIGSA); assay: as above; details: pre-emerge, 14 days after application, scale 0-100
Description: as §1, §2, §3, §4, §5

[9] = tested on: green foxtail (Setaria viridis, SETVI); assay: Post-emerge test, greenhouse herbicide activity screening; details: post-emerge, 14 days after application, rating scale 0-100
Description: as §1, §2, §3, §4, §5

[10] = tested on: ivyleaf morningglory (Ipomoea hederacea, IPOHE); assay: as above; details: post-emerge, 14 days after application, rating scale 0-100
Description: as §1, §2, §3, §4, §5

[11] = tested on: velvetleaf (Abutilon theophrasti, ABUTH); assay: as above; details: post-emerge, 14 days after application, rating scale 0-100
Description: as §1, §2, §3, §4, §5

[12] = tested on: lambsquarters (Chenopodium album, CHEAL); assay: as above; details: post-emerge, 14 days after application, rating scale 0-100
Description: as §1, §2, §3, §4, §5

[13] = tested on: barnyardgrass (Echinochloa crus-galli, ECHCG); assay: as above; details: post-emerge, 14 days after application, rating scale 0-100
Description: as §1, §2, §3, §4, §5

[14] = tested on: redroot pigweed (Amaranthus retroflexus, AMARE); assay: as above; details: post-emerge, 14 days after application, rating scale 0-100
Description: as §1, §2, §3, §4, §5

[15] = tested on: sicklepod (Cassia obtusifolia, CASOB); assay: as above; details: post-emerge, 14 days after application, rating scale 0-100
Description: as §1, §2, §3, §4, §5

[16] = tested on: large crabgrass (Digitaria sanguinalis, DIGSA); assay: as above; details: post-emerge, 14 days after application, rating scale 0-100
Description: as §1, §2, §3, §4, §5

[17] = tested on: upland rice (Oryza sp., var. Tebonnet, RICE); assay: Pre-emerge test, crop safety; details: pre-emerge, 14 days after application, scale 0-100
Outline: (§6)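 Fourteen days after spraying, crop and weed injury was graded visually from 0, no effect, to 100, every plant dead. Test substances were dissolved in acetone and applied at 15–1000 g ai/ha with a flat-fan nozzle. Application was either pre-emergence, one day after sowing, or post-emergence at the 2–3 leaf stage.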

[18] = tested on: field corn (Zea mays L., var. Dekalb 535, CORN); assay: Pre-emerge test, crop safety; details: pre-emerge, 14 days after application, scale 0-100
Outline: as §6

[19] = tested on: upland rice (Oryza sp., var. Tebonnet, RICE); assay: Post-emerge test, crop safety; details: post-emerge, 14 days after application, rating scale 0-100
Outline: (§7)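 Rating: 0–100 visual injury, 14 DAA. Application: acetone, 187 l/ha, 15–1000 g ai/ha, flat-fan track sprayer with nozzle 40–45 cm above soil or canopy. Post-emerge runs used 0.25% v/v surfactant on 2–3 leaf plants.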

[20] = tested on: field corn (Zea mays L., var. Dekalb 535, CORN); assay: Post-emerge test, crop safety; details: post-emerge, 14 days after application, rating scale 0-100
Outline: as §7

Cn1c(C(F)(F)F)cc(=O)n(-c2ccc(C#N)cc2NC(=O)C=Cc2ccccc2)c1=O [2-141]
phytotoxicity rating AMARE ([1]; 63 g ai/ha): 100 | phytotoxicity rating AMARE ([1]; 250 g ai/ha): 100 | phytotoxicity rating SETVI ([2]; 63 g ai/ha): 30 | phytotoxicity rating SETVI ([2]; 250 g ai/ha): 70 | phytotoxicity rating IPOHE ([3]; 63 g ai/ha): 40 | phytotoxicity rating IPOHE ([3]; 250 g ai/ha): 100 | phytotoxicity rating ABUTH ([4]; 63 g ai/ha): 100 | phytotoxicity rating ABUTH ([4]; 250 g ai/ha): 100 | phytotoxicity rating CHEAL ([5]; 63 g ai/ha): 100 | phytotoxicity rating CHEAL ([5]; 250 g ai/ha): 100 | phytotoxicity rating ECHCG ([6]; 63 g ai/ha): 30 | phytotoxicity rating ECHCG ([6]; 250 g ai/ha): 95 | phytotoxicity rating CASOB ([7]; 63 g ai/ha): 30 | phytotoxicity rating CASOB ([7]; 250 g ai/ha): 90 | phytotoxicity rating DIGSA ([8]; 63 g ai/ha): 35 | phytotoxicity rating DIGSA ([8]; 250 g ai/ha): 70 | SETVI phytotoxicity rating ([9]; 63 g ai/ha): 20 | SETVI phytotoxicity rating ([9]; 250 g ai/ha): 40 | IPOHE phytotoxicity rating ([10]; 63 g ai/ha): 100 | IPOHE phytotoxicity rating ([10]; 250 g ai/ha): 95 | ABUTH phytotoxicity rating ([11]; 63 g ai/ha): 100 | ABUTH phytotoxicity rating ([11]; 250 g ai/ha): 100 | CHEAL phytotoxicity rating ([12]; 63 g ai/ha): 95 | CHEAL phytotoxicity rating ([12]; 250 g ai/ha): 100 | ECHCG phytotoxicity rating ([13]; 63 g ai/ha): 10 | ECHCG phytotoxicity rating ([13]; 250 g ai/ha): 30 | AMARE phytotoxicity rating ([14]; 63 g ai/ha): 95 | AMARE phytotoxicity rating ([14]; 250 g ai/ha): 95 | CASOB phytotoxicity rating ([15]; 63 g ai/ha): 50 | CASOB phytotoxicity rating ([15]; 250 g ai/ha): 95 | DIGSA phytotoxicity rating ([16]; 63 g ai/ha): 10 | DIGSA phytotoxicity rating ([16]; 250 g ai/ha): 30 | phytotoxicity rating RICE (crop damage) ([17]; 63 g ai/ha): 30 | phytotoxicity rating RICE (crop damage) ([17]; 250 g ai/ha): 70 | phytotoxicity rating CORN (crop damage) ([18]; 63 g ai/ha): 0 | phytotoxicity rating CORN (crop damage) ([18]; 250 g ai/ha): 45 | RICE phytotoxicity rating (crop damage) ([19]; 63 g ai/ha): 15 | RICE phytotoxicity rating (crop damage) ([19]; 250 g ai/ha): 65 | CORN phytotoxicity rating (crop damage) ([20]; 63 g ai/ha): 5 | CORN phytotoxicity rating (crop damage) ([20]; 250 g ai/ha): 10
